Measurements published in US5374733A, “Sweetening agent derived from L-aspartic or L-glutamic acid” (priority 1989, dated 1994).

test: Sweetening potency: taste comparison by a team of eight experienced people with a sucrose reference solution; settings: Table 3; weight basis, compared with a 2% aqueous solution of sucrose
Description: The sweetening potency of the compounds described in the Examples was evaluated by a team of eight experienced people. This is done by comparing the taste of the compounds, in aqueous solution at variable concentrations, with a 2%, 5 % or 10 % reference solution of sucrose. The sweetening potency of the test compound compared with sucrose then corresponds to the weight ratio between the compound and sucrose for equal sweetening intensity, i.e. when the sweet tastes of the solution of the test compound and the reference solution of sucrose are considered, by a majority of people, to have the same sweetening intensity.
Summary Table 3 below gives, by way of examples, a list of a few compounds obtained by experimental protocols similar to those described above, which those skilled in the art will easily find, together with their relative sweetening potency (SP), evaluated on a weight basis, compared with a 2% aqueous solution of sucrose. When the groups R1, R2 and R3 are different, the configuration of the asymmetric carbon to which they are bonded (carbon marked with an asterisk) is designated according to the conventional rules of stereochemistry using the R/S system: R, S or, when both configurations coexist in the same compound, RS.

SMILES | SP (relative sweetening potency)
CCC[C@H](C)C(=O)N[C@@H](CCC(=O)O)C(=O)Nc1ccc(C#N)cc1 [CH3/H/CH3 (CH2)2/S/2/CH/CH/CN] | 2800
CCCC[C@@H](C)C(=O)N[C@@H](CCC(=O)O)C(=O)Nc1ccc(C#N)cc1 [CH3/H/CH3 (CH2)3/R/2/CH/CH/CN] | 3000
CCC(C(=O)N[C@@H](CCC(=O)O)C(=O)Nc1ccc(C#N)cc1)c1ccccc1 (some centres unmarked) [C2 H5/H/C6 H5/RS/2/CH/CH/CN] | 2700
CCC[C@@H](C)C(=O)N[C@@H](CCC(=O)O)C(=O)Nc1ccc(C#N)cc1 [CH3/H/CH3 (CH2)2/R/2/CH/CH/CN] | 500
CO[C@](C(=O)N[C@@H](CCC(=O)O)C(=O)Nc1ccc(C#N)cc1)(c1ccccc1)C(F)(F)F [CF3/CH3 O/C6 H5/S/2/CH/CH/CN] | 600
CC(OC1C(C)CCCC1C)C(=O)N[C@@H](CCC(=O)O)C(=O)Nc1ccc(C#N)cc1 (some centres unmarked) [CH3/H/(2,6-diMe)-c-C6 H9 O/RS/2/CH/CH/CN] | 1000
CC(C)CCC(C)(C)C(=O)N[C@@H](CCC(=O)O)C(=O)Nc1ccc(C#N)cc1 [CH3/CH3/(CH3)2 CH(CH2)2/2/CH/CH/CN] | 10000
CCCC[C@@H](C)C(=O)N[C@@H](CCC(=O)O)C(=O)Nc1ccc(C#N)nc1 [CH3/H/CH3 (CH2)3/R/2/N/CH/CN] | 2000
CC(C)CCC(C)C(=O)N[C@@H](CCC(=O)O)C(=O)Nc1ccc(C#N)cc1 (some centres unmarked) [CH3/H/(CH3)2 CH(CH2)2/RS/2/CH/CH/CN] | 6000
N#Cc1ccc(NC(=O)[C@H](CCC(=O)O)NC(=O)C(c2ccccc2)c2ccccc2)cc1 [C6 H5/H/C6 H5/2/CH/CH/CN] | 250
C[C@H](C(=O)N[C@@H](CCC(=O)O)C(=O)Nc1ccc(C#N)cc1)c1ccccc1 [CH3/H/C6 H5/S/2/CH/CH/CN] | 1500
C[C@@H](C(=O)N[C@@H](CCC(=O)O)C(=O)Nc1ccc(C#N)nc1)c1ccccc1 [CH3/H/C6 H5/R/2/N/CH/CN] | 2500
CC(Oc1ccccc1)C(=O)N[C@@H](CCC(=O)O)C(=O)Nc1ccc(C#N)cc1 (some centres unmarked) [CH3/H/C6 H5 O/RS/2/CH/CH/CN] | 4000
COC(C(=O)N[C@@H](CCC(=O)O)C(=O)Nc1ccc(C#N)cc1)c1ccccc1 (some centres unmarked) [CH3 O/H/C6 H5/RS/2/CH/CH/CN] | 2300
CC(Oc1ccccc1)C(=O)N[C@@H](CCC(=O)O)C(=O)Nc1ccc(C#N)nc1 (some centres unmarked) [CH3/H/C6 H5 O/RS/2/N/CH/CN] | 13000
CC(C(=O)N[C@@H](CCC(=O)O)C(=O)Nc1ccc(C#N)cc1)C1CCCCC1 (some centres unmarked) [CH3/H/c-C6 H11/RS/2/CH/CH/CN] | 1000
C[C@@H](Oc1ccccc1)C(=O)N[C@@H](CC(=O)O)C(=O)Nc1ccc(C#N)cc1 [CH3/H/C6 H5 O/R/1/CH/CH/CN] | 18000
N#Cc1ccc(NC(=O)[C@H](CCC(=O)O)NC(=O)C2(c3ccccc3)CC2)cc1 [CH2 CH2/C6 H5/2/CH/CH/CN] | 2500
CCCCC(CC)C(=O)N[C@@H](CCC(=O)O)C(=O)Nc1ccc(C#N)cc1 (some centres unmarked) [C2 H5/H/CH3 (CH2)3/RS/2/CH/CH/CN] | 5000
CCCCC(C)C(=O)N[C@@H](CC(=O)O)C(=O)Nc1ccc(C#N)cc1 (some centres unmarked) [CH3/H/CH3 (CH2)3/RS/1/CH/CH/CN] | 1500

SMILES | SP (relative sweetening potency)
CO[C@H](C(=O)N[C@@H](CCC(=O)O)C(=O)Nc1ccc(C#N)nc1)c1ccccc1 [CH3 O/H/C6 H5/S/2/N/CH/CN] | 3000
N#Cc1ccc(NC(=O)[C@H](CCC(=O)O)NC(=O)C2(c3ccccc3)CCCC2)cc1 [CH2 (CH2)2 CH2/C6 H5/2/CH/CH/CN] | 2000
C[C@@H](C(=O)N[C@@H](CCC(=O)O)C(=O)Nc1ccc(C#N)cc1)c1ccccc1 [CH3/H/C6 H5/R/2/CH/CH/CN] | 1300
N#Cc1ccc(NC(=O)[C@H](CCC(=O)O)NC(=O)C2(c3ccccc3)CCCC2)cn1 [CH2 (CH2)2 CH2/C6 H5/2/N/CH/CN] | 3000
CCCCCC(C)C(=O)N[C@@H](CCC(=O)O)C(=O)Nc1ccc(C#N)cc1 (some centres unmarked) [CH3/H/CH3 (CH2)4/RS/2/CH/CH/CN] | 1000
CCCCC(C)(C)C(=O)N[C@@H](CCC(=O)O)C(=O)Nc1ccc(C#N)cc1 [CH3/CH3/CH3 (CH2)3/2/CH/CH/CN] | 11000
CCCCCC(C)(C)C(=O)N[C@@H](CCC(=O)O)C(=O)Nc1ccc(C#N)nc1 [CH3/CH3/CH3 (CH2) 4/2/N/CH/CN] | 3000
CCCCC(C)(C)C(=O)N[C@@H](CCC(=O)O)C(=O)Nc1ccc(Cl)nc1 [CH3/CH3/CH3 (CH2)3/2/N/CH/Cl] | 600
CCCC[C@H](C)C(=O)N[C@@H](CCC(=O)O)C(=O)Nc1ccc(C(C)=O)cc1 [CH3/H/CH3 (CH2)3/S/2/CH/CH/COCH3] | 300
CCCO[C@@H](C)C(=O)N[C@@H](CCC(=O)O)C(=O)Nc1ccc(C#N)cc1 [CH3/H/CH3 (CH2)2 O/S/2/CH/CH/CN] | 200
C[C@H](C(=O)N[C@@H](CCC(=O)O)C(=O)Nc1ccc(C#N)nc1)c1ccccc1 [CH3/H/C6 H5/S/2/N/CH/CN] | 4000
N#Cc1ccc(NC(=O)[C@H](CCC(=O)O)NC(=O)C(Cl)c2ccccc2)cc1 (some centres unmarked) [Cl/H/C6 H5/RS/2/CH/CH/CN] | 2200
CCCCC(OC)C(=O)N[C@@H](CCC(=O)O)C(=O)Nc1ccc(C#N)nc1 (some centres unmarked) [CH3 O/H/CH3 (CH2)3/RS/2/N/CH/CN] | 2000
N#Cc1ccc(NC(=O)[C@H](CC(=O)O)NC(=O)C2(c3ccccc3)CC2)cc1 [CH2 CH2/C6 H5/1/CH/CH/CN] | 1000
CCCO[C@H](C)C(=O)N[C@@H](CCC(=O)O)C(=O)Nc1ccc(C#N)cc1 [CH3/H/CH3 (CH2)2 O/R/2/CH/CH/CN] | 400
CCCC[C@H](C)C(=O)N[C@@H](CCC(=O)O)C(=O)Nc1ccc(C(N)=O)cc1 [CH3/H/CH3 (CH2)3/S/2/CH/CH/CONH2] | 700
CO[C@@H](C(=O)N[C@@H](CCC(=O)O)C(=O)Nc1ccc(C#N)nc1)c1ccccc1 [CH3 O/H/C6 H5/R/2/N/CH/CN] | 11000
C=CCC(C)(C)C(=O)N[C@@H](CCC(=O)O)C(=O)Nc1ccc(C#N)cc1 [CH3/CH3/CH2 CHCH2/2/CH/CH/CN] | 500
CCCC[C@H](C)C(=O)N[C@@H](CCC(=O)O)C(=O)Nc1cnc(C#N)nc1 [CH3/H/CH3 (CH2)3/S/2/N/N/CN] | 10000

test: not given; settings: Table 2, EP-A-0.338.946; sucrose concentration not stated; cited from earlier work

SMILES | SP
CC(C)CCN[C@@H](CC(=O)O)C(=O)Nc1ccc(C#N)cc1 [(CH3)2 CHCH2 CH2/1/4-CN--C6 H4] | 100
CC(CCN[C@@H](CCC(=O)O)C(=O)Nc1ccc(C#N)cc1)c1ccccc1 (some centres unmarked) [C6 H5 CH(CH3)CH2 CH2/2/4-CN--C6 H4] | 400
CCCCCCCN[C@@H](CCC(=O)O)C(=O)Nc1ccc(C#N)nc1 [CH3 (CH2)5 CH2/2/2-CN-pyrid-5-yl] | 4000
N#Cc1ccc(NC(=O)[C@H](CC(=O)O)NCC2CCCCC2)cc1 [c-C6 H11 CH2/1/4-CN--C6 H4] | 200
N#Cc1ccc(NC(=O)[C@H](CCC(=O)O)NCC=Cc2ccccc2)cc1 [C6 H5 CH=CHCH2/2/4-CN--C6 H4] | 2000
